# Measurements reported in patent publication US20110136801A1, “Novel Compounds” (Dainippon Sumitomo Pharma Co. Ltd., priority 2009, published 2011).
# Target: T1, human TLR7 (Homo sapiens, UniProt Q9NYK1)
# T1 construct: expressed in transfected cells; host or cells: HEK293 cell line stably expressing the pNiFty2-SEAP reporter plasmid; TLR7 in pUNO vector, blasticidin selection
# T1 sequence (Q9NYK1 27-1049): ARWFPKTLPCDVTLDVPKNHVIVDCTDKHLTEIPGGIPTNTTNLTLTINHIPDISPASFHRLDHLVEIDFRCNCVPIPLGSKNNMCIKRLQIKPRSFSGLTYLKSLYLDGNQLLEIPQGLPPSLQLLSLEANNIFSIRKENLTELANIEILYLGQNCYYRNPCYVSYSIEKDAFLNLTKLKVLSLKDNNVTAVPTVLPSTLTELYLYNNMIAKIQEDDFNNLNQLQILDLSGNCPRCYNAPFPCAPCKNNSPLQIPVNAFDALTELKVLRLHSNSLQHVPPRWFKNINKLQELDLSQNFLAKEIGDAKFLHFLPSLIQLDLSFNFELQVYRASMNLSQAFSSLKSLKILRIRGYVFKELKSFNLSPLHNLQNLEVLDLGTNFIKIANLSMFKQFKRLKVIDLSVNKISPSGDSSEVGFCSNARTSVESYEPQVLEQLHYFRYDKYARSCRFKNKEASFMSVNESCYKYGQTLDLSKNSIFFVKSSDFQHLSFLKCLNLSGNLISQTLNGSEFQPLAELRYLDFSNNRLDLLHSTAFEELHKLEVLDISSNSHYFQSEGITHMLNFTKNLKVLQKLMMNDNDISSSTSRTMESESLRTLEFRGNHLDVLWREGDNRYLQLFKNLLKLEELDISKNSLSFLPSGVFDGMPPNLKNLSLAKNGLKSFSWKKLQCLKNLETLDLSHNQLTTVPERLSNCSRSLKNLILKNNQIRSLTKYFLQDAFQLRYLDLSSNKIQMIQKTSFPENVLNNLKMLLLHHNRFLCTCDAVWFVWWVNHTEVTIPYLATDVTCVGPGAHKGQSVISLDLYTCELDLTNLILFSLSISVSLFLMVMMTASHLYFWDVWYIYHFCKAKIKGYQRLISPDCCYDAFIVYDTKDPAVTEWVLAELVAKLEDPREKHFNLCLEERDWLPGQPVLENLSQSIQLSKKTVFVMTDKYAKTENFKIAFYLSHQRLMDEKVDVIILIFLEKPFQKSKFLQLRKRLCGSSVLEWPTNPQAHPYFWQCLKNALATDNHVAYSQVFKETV
# Assay: Human TLR7 Assay (SEAP reporter in HEK293 cells);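 further: Read-out is secreted alkaline phosphatase made under an NFkB/ELAM-1 composite promoter, reporting TLR7-triggered NFkB activation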
# Type: cell-based
# Settings: HEK293 cell line expressing human TLR7 and pNiFty2-SEAP reporter, overnight incubation at 37° C., 0.1% DMSO; read-out: hTLR7 EC50
row,SMILES,EC50
1,"CCCCc1nc2c(N)nc3ccccc3c2n1CCCN(Cc1cccc(OC(C)(C)C(=O)OCC)c1)C(=O)CN1CCCC1 [Example 168, Ethyl 2-[3-({N-[3-(4-amino-2-butyl-1H-imidazo[4,5-c]quinolin-1-yl)propyl]-2-(pyrrolidin-1-yl)acetamido}methyl)phenoxy]-2-methylpropanoate]",166 nM
2,"CCCCc1nc2c(N)nc3ccccc3c2n1CCCN(Cc1cccc(OC(C)(C)C(=O)OC)c1)C(=O)CN1CCCC1 [Example 169, Methyl 2-[3-({N-[3-(4-amino-2-butyl-1H-imidazo[4,5-c]quinolin-1-yl)propyl]-2-(pyrrolidin-1-yl)acetamido}methyl)phenoxy]-2-methylpropanoate]",155 nM
3,"CCOC(=O)COc1cccc(CN(CCCn2c(CCOC)nc3c(N)nc4ccccc4c32)C(=O)CN2CCCCC2)c1 [Example 32, Ethyl 2-{3-[(N-{3-[4-amino-2-(2-methoxyethyl)-1H-imidazo[4,5-c]quinolin-1-yl]propyl}-2-(piperidin-1-yl)acetamido)methyl]phenoxy}acetate]",177 nM
4,"CCOC(=O)COc1cc(CN(CCCn2c(CCOC)nc3c(N)nc4ccccc4c32)C(=O)CN(CC)CC)ccc1F [Example 119, Ethyl 2-{5-[(N-{3-[4-amino-2-(2-methoxyethyl)-1H-imidazo[4,5-c]quinolin-1-yl]propyl}-2-{diethylamino}acetamido)methyl]-2-fluorophenoxy}acetate]",93.2 nM
5,"CCCCc1nc2c(N)nc3ccccc3c2n1CCCN(Cc1cccc(OCC(=O)OC(C)C)c1)C(=O)CN(CC)CC [Example 157, Isopropyl 2-[3-({N-[3-(4-amino-2-butyl-1H-imidazo[4,5-c]quinolin-1-yl)propyl]-2-(diethylamino)acetamido}methyl)phenoxy]acetate]",100 nM
6,"CCOC(=O)C(C)(C)Oc1cccc(CN(CCCn2c(CCOC)nc3c(N)nc4ccccc4c32)C(=O)CN(C)C)c1 [Example 148, Ethyl 2-{3-[(N-{3-[4-amino-2-(2-methoxyethyl)-1H-imidazo[4,5-c]quinolin-1-yl]propyl}-2-{dimethylamino}acetamido)methyl]phenoxy}-2-methylpropanoate]",115 nM
7,"CCOCc1nc2c(N)nc3ccccc3c2n1CCCN(Cc1cccc(OCC(=O)OC(C)C)c1F)C(=O)CN(C)C [Example 167, Isopropyl 2-{3-[(N-{3-[4-amino-2-(ethoxymethyl)-1H-imidazo[4,5-c]quinolin-1-yl]propyl}-2-{dimethylamino}acetamido)methyl]-2-fluorophenoxy}acetate]",716 nM
8,"CCCCc1nc2c(N)nc3ccccc3c2n1CCCN(Cc1cccc(OCC(=O)OC)c1)C(=O)CN1CCN(CCOC)CC1 [Example 12, Methyl {3-[([3-(4-amino-2-butyl-1H-imidazo[4,5-c]quinolin-1-yl)propyl]{[4-(2-methoxyethyl)piperazin-1-yl]acetyl}amino)methyl]phenoxy}acetate]",432 nM
9,"CCC(Oc1cccc(CN(CCCn2c(CCOC)nc3c(N)nc4ccccc4c32)C(=O)CN(CC)CC)c1)C(=O)OC (centres unmarked) [Example 70, Methyl 2-{3-[(N-{3-[4-amino-2-(2-methoxyethyl)-1H-imidazo[4,5-c]quinolin-1-yl]propyl}-2-{diethylamino}acetamido)methyl]phenoxy}butanoate]",25.9 nM
10,"CCN(CC)CC(=O)N(CCCn1c(CCOC)nc2c(N)nc3ccccc3c21)Cc1cccc(OCC(=O)OC(C)C)c1OC [Example 90, Isopropyl 2-{3-[(N-{3-[4-amino-2-(2-methoxyethyl)-1H-imidazo[4,5-c]quinolin-1-yl]propyl}-2-{diethylamino}acetamido)methyl]-2-methoxyphenoxy}acetate]",81 nM
11,"CCN(CC)CC(=O)N(CCn1c(CCOC)nc2c(N)nc3ccccc3c21)Cc1cccc(OCC(=O)OC)c1 [Example 102, Methyl 2-{3-[(N-{2-[4-amino-2-(2-methoxyethyl)-1H-imidazo[4,5-c]quinolin-1-yl]ethyl}-2-{diethylamino}acetamido)methyl]phenoxy}acetate]",> 10000 nM

# The remaining molecules from weak to strong by EC50, led by results:
row,EC50,SMILES
1,756 nM,"COCCc1nc2c(N)nc3ccccc3c2n1CCCN(Cc1cccc(OCC(=O)OC(C)C)c1)C(=O)CN1CCOCC1 [Example 112, Isopropyl 2-{3-[(N-{3-[4-amino-2-(2-methoxyethyl)-1H-imidazo[4,5-c]quinolin-1-yl]propyl}-2-morpholinoacetamido)methyl]phenoxy}acetate]"
2,349 nM,"COCCc1nc2c(N)nc3ccccc3c2n1CCCN(Cc1cccc(OCC(=O)OC)c1)C(=O)CN(C)C [Example 17, Methyl (3-{[[3-(4-amino-2-(2-methoxyethyl)-1H-imidazo[4,5-c]quinolin-1-yl)propyl](N,N-dimethylglycyl)amino]methyl}phenoxy)acetate]"
3,211 nM,"CCN(C)CC(=O)N(CCCn1c(CCOC)nc2c(N)nc3ccccc3c21)Cc1ccc(OC)c(OCC(=O)OC(C)C)c1 [Example 76, Isopropyl 2-{5-[(N-{3-[4-amino-2-(2-methoxyethyl)-1H-imidazo[4,5-c]quinolin-1-yl]propyl}-2-{ethyl(methyl)amino}acetamido)methyl]-2-methoxyphenoxy}acetate]"
4,204 nM,"CCOC(=O)COc1cccc(CN(CCCCn2c(CCOC)nc3c(N)nc4ccccc4c32)C(=O)NCCCN(C)C)c1 [Example 129, Ethyl 2-{3-[(1-{4-[4-amino-2-(2-methoxyethyl)-1H-imidazo[4,5-c]quinolin-1-yl]butyl}-3-{3-(dimethylamino)propyl}ureido)methyl]phenoxy}acetate]"
5,183 nM,"CCN(CC)CC(=O)N(CCCn1c(CCOC)nc2c(N)nc3ccccc3c21)Cc1cccc(OCC(=O)OC(C)C)c1C [Example 147, Isopropyl 2-{3-[(N-{3-[4-amino-2-(2-methoxyethyl)-1H-imidazo[4,5-c]quinolin-1-yl]propyl}-2-{diethylamino}acetamido)methyl]-2-methylphenoxy}acetate]"
6,181 nM,"COCCc1nc2c(N)nc3ccccc3c2n1CCCNCc1cccc(OCC(=O)OC)c1 [Example 15, Methyl (3-{[[3-(4-amino-2-(2-methoxyethyl)-1H-imidazo[4,5-c]quinolin-1-yl)propyl]amino]methyl}phenoxy)acetate]"
7,181 nM,"COCCc1nc2c(N)nc3ccccc3c2n1CCCN(Cc1cccc(OC(C)(C)C(=O)OC)c1)C(=O)CN(C)C [Example 149, Methyl 2-{3-[(N-{3-[4-amino-2-(2-methoxyethyl)-1H-imidazo[4,5-c]quinolin-1-yl]propyl}-2-{dimethylamino}acetamido)methyl]phenoxy}-2-methylpropanoate]"
8,178 nM,"COCCc1nc2c(N)nc3ccccc3c2n1CCCN(Cc1cccc(OCC(=O)OC)c1)C(=O)CN1CCCCC1 [Example 19, Methyl (3-{[[3-(4-amino-2-(2-methoxyethyl)-1H-imidazo[4,5-c]quinolin-1-yl)propyl](piperidin-1-ylacetyl)amino]methyl}phenoxy)acetate]"
9,115 nM,"CCN(CC)CC(=O)N(CCCn1c(CCOC)nc2c(N)nc3ccccc3c21)Cc1cccc(OCC(=O)OC2CCOCC2)c1 [Example 82, Tetrahydro-2H-pyran-4-yl 2-{3-[(N-{3-[4-amino-2-(2-methoxyethyl)-1H-imidazo[4,5-c]quinolin-1-yl]propyl}-2-{diethylamino}acetamido)methyl]phenoxy}acetate]"
10,57 nM,"COCCc1nc2c(N)nc3ccccc3c2n1CCCCN(Cc1ccc(F)c(OCC(=O)OC(C)C)c1)C(=O)NCCN1CCCCC1 [Example 139, Isopropyl 2-{5-[(1-{4-[4-amino-2-(2-methoxyethyl)-1H-imidazo[4,5-c]quinolin-1-yl]butyl}-3-{2-(piperidin-1-yl)ethyl}ureido)methyl]-2-fluorophenoxy}acetate]"
11,24.2 nM,"CCOC(=O)C(C)Oc1cccc(CN(CCCn2c(CCOC)nc3c(N)nc4ccccc4c32)C(=O)CN(CC)CC)c1 (centres unmarked) [Example 52, Ethyl 2-{3-[(N-{3-[4-amino-2-(2-methoxyethyl)-1H-imidazo[4,5-c]quinolin-1-yl]propyl}-2-{diethylamino}acetamido)methyl]phenoxy}propanoate]"
12,20.9 nM,"CCOC(=O)C(C)(C)Oc1cccc(CN(CCCCn2c(CCOC)nc3c(N)nc4ccccc4c32)CCN(C)C)c1 [Example 134, Ethyl 2-{3-[({4-[4-amino-2-(2-methoxyethyl)-1H-imidazo[4,5-c]quinolin-1-yl]butyl}{2-(dimethylamino)ethyl}amino)methyl]phenoxy}-2-methylpropanoate]"
